Source: ChEMBL document CHEMBL4177607, “Antibacterial constituents of the plant family Amaryllidaceae” (2017)
≈ marks a conversion by molar mass, not a printed value.

Columns and labels:
Klebsiella pneumoniae [1] = experiment: Antibacterial activity against Klebsiella pneumoniae incubated overnight by two-fold serial dilution method; assay type: functional
Staphylococcus aureus [2] = experiment: Antibacterial activity against Staphylococcus aureus incubated overnight by two-fold serial dilution method; assay type: functional
Escherichia coli [3] = experiment: Antibacterial activity against Escherichia coli incubated overnight by two-fold serial dilution method; assay type: functional
Bacillus subtilis = experiment: Antibacterial activity against Bacillus subtilis incubated overnight by two-fold serial dilution method; assay type: functional
Escherichia coli [4] = experiment: Antibacterial activity against Escherichia coli assessed as diameter of inhibition zone at 1 mg/ml; assay type: functional; details: read-out: DIZ
Staphylococcus aureus [5] = experiment: Antibacterial activity against Staphylococcus aureus by agar dilution method; assay type: functional
Staphylococcus aureus [6] = experiment: Antibacterial activity against Staphylococcus aureus assessed as diameter of inhibition zone at 1 mg/ml; assay type: functional; details: read-out: DIZ
Escherichia coli [7] = experiment: Antibacterial activity against Escherichia coli by agar dilution method; assay type: functional
Escherichia coli [8] = experiment: Antibacterial activity against Escherichia coli assessed as diameter of inhibition zone at 20 mg/ml; assay type: functional; details: read-out: DIZ
Staphylococcus aureus [9] = experiment: Antibacterial activity against Staphylococcus aureus assessed as diameter of inhibition zone at 20 mg/ml; assay type: functional; details: read-out: DIZ
Staphylococcus aureus [10] = experiment: Antibacterial activity against Staphylococcus aureus after 24 hrs; assay type: functional
Staphylococcus aureus [11] = experiment: Antibacterial activity against Staphylococcus aureus assessed as diameter of inhibition zone at 3 mg/ml; assay type: functional; details: read-out: DIZ
Pseudomonas aeruginosa [12] = experiment: Antibacterial activity against Pseudomonas aeruginosa assessed as diameter of inhibition zone at 3 mg/ml; assay type: functional; details: read-out: DIZ
Escherichia coli [13] = experiment: Bacteriostatic activity against Escherichia coli assessed as growth inhibition at 8 ug/ml after 24 hrs; assay type: functional; details: read-out: GI
[14] = test system: Agrobacterium tumefaciens; experiment: Antibacterial activity against Agrobacterium tumefaciens assessed as inhibition of crown gall tumor initiation at 1 mg/ml; assay type: functional
Klebsiella pneumoniae [15] = experiment: Antibacterial activity against Klebsiella pneumoniae assessed as diameter of inhibition zone at 20 mg/ml; assay type: functional; details: read-out: DIZ
Salmonella typhi = experiment: Antibacterial activity against Salmonella typhi assessed as diameter of inhibition zone at 20 mg/ml; assay type: functional, Salmonella enterica subsp. enterica serovar Typhi; details: Salmonella enterica; read-out: DIZ
Pseudomonas aeruginosa [16] = experiment: Antibacterial activity against Pseudomonas aeruginosa assessed as diameter of inhibition zone at 20 mg/ml; assay type: functional; details: read-out: DIZ
Helicobacter pylori = experiment: Antibacterial activity against Helicobacter pylori assessed as diameter of inhibition zone at 1 mg/ml; assay type: functional; details: read-out: DIZ
Flavobacterium columnare [17] = experiment: Antibacterial activity against Flavobacterium columnare BioMed; assay type: functional
Staphylococcus aureus [18] = experiment: Antibacterial activity against Staphylococcus aureus; assay type: functional
Edwardsiella ictaluri = experiment: Antibacterial activity against Edwardsiella ictaluri after 24 hrs; assay type: functional
Rhodococcus fascians = experiment: Antibacterial activity against Corynebacterium fascians assessed as diameter of inhibition zone at 10 mM after 48 to 72 hrs by paper disc method; assay type: functional; details: Rhodococcoides fascians; read-out: DIZ
Escherichia coli [19] = experiment: Antibacterial activity against Escherichia coli; assay type: functional
Pseudomonas aeruginosa [20] = experiment: Antibacterial activity against Pseudomonas aeruginosa; assay type: functional
Flavobacterium columnare [21] = experiment: Antibacterial activity against Flavobacterium columnare BioMed after 24 hrs; assay type: functional
Flavobacterium columnare [22] = experiment: Antibacterial activity against Flavobacterium columnare ALM-00-173 after 24 hrs; assay type: functional; details: ALM-00-173, 24 h
Flavobacterium columnare [23] = experiment: Antibacterial activity against Flavobacterium columnare ALM-00-173; assay type: functional

In the case of `COC1=CC(=O)[C@@]23CCN(Cc4c2cc2c(c4OC)OCO2)[C@@H]3C1` [DISTICHAMINE], the MIC (Klebsiella pneumoniae [1]) is reported as 63 µg/mL (≈ 191 µM), the MIC (Staphylococcus aureus [2]) is reported as 63 µg/mL (≈ 191 µM) and the MIC (Escherichia coli [3]) is reported as 63 µg/mL (≈ 191 µM). It also gave an MIC (Bacillus subtilis) of 130 µg/mL (≈ 395 µM).
With `CC1(C)S[C@@H]2[C@H](NC(=O)Cc3ccccc3)C(=O)N2[C@H]1C(=O)O` [PENICILLIN G] the zone of inhibition at 1000 µg/mL (Escherichia coli [4]) was 25 mm, the MIC (Staphylococcus aureus [5]) was 0.46 µg/mL (≈ 1.38 µM) and the zone of inhibition at 1000 µg/mL (Staphylococcus aureus [6]) was 28 mm. The MIC (Escherichia coli [7]) was 0.77 µg/mL (≈ 2.3 µM).
`O=c1c2cc3c(cc2c2cccc4ccn1c42)OCO3` gave a zone of inhibition at 20000 µg/mL (Escherichia coli [8]) of 7 mm and a zone of inhibition at 20000 µg/mL (Staphylococcus aureus [9]) of 7 mm.
`COc1cc2c(cc1OC)[C@@H]1[C@@H](OC2=O)[C@@H](O)C[C@H]2CCN(C)[C@H]21.Cl` was tested, and the MIC (Staphylococcus aureus [10]) was greater than 37 µg/mL.
Compound `O[C@H]1C=C2[C@H]3CN(Cc4cc5c(cc43)OCO5)[C@H]2C[C@@H]1O` has a zone of inhibition at 3000 µg/mL (Staphylococcus aureus [11]) of 22 mm and a zone of inhibition at 3000 µg/mL (Pseudomonas aeruginosa [12]) of 16 mm.
In the case of `CCCCCCCCCCCCCCCCC/C=C/CCC[C@@H](O)[C@@H](O)C(CO)N(C(=O)[C@H](O)CCCCCCCCCCCCCCC)C(O)CO` (stereo not given in full), the MIC (Staphylococcus aureus [5]) is reported as 30 µg/mL (≈ 39.7 µM) and the MIC (Escherichia coli [7]) is reported as 50 µg/mL (≈ 66.1 µM).
Compound `O=C1N[C@@H]2C(=C[C@H](O)[C@@H](O)[C@H]2O)c2cc3c(c(O)c21)OCO3` [NARCICLASINE] has a zone of inhibition at 1000 µg/mL (Escherichia coli [4]) of 13 mm, an inhibition of growth at 8 µg/mL (Escherichia coli [13]) of 50% and an inhibition at 1000 µg/mL [14] of 62%. For the same compound, the zone of inhibition at 1000 µg/mL (Staphylococcus aureus [6]) was 11 mm.
In the case of `CC[C@H](CC[C@@H](C)[C@H]1CC[C@H]2[C@@H]3CC=C4C[C@@H](O[C@@H]5O[C@H](CO)[C@@H](O)[C@H](O)[C@H]5O)CC[C@]4(C)[C@H]3CC[C@]12C)C(C)C` [SITOGLUSIDE], the zone of inhibition at 1000 µg/mL (Escherichia coli [4]) is reported as 14 mm, the zone of inhibition at 20000 µg/mL (Klebsiella pneumoniae [15]) is reported as 8 mm and the zone of inhibition at 20000 µg/mL (Salmonella typhi) is reported as 8 mm. For the same compound, the zone of inhibition at 20000 µg/mL (Pseudomonas aeruginosa [16]) was 7 mm, the zone of inhibition at 1000 µg/mL (Staphylococcus aureus [6]) was 9 mm and the zone of inhibition at 20000 µg/mL (Escherichia coli [8]) was 9 mm. It also gave a zone of inhibition at 1000 µg/mL (Helicobacter pylori) of 9 mm and a zone of inhibition at 20000 µg/mL (Staphylococcus aureus [9]) of 7 mm.
With `COc1c2c(cc3c1OCO3)[C@]13C=C[C@H](OC)C[C@H]1N(CC3)C2` [BUPHANIDRINE] the MIC (Klebsiella pneumoniae [1]) was 63 µg/mL (≈ 200 µM), the MIC (Staphylococcus aureus [2]) was 63 µg/mL (≈ 200 µM) and the MIC (Escherichia coli [3]) was 63 µg/mL (≈ 200 µM). For the same compound, the MIC (Bacillus subtilis) was 130 µg/mL (≈ 412 µM).
In the case of `[O-]c1cc2c3c(c1)c1cc4c(cc1c[n+]3CC2)OCO4` [UNGEREMINE], the MIC (Flavobacterium columnare [17]) is reported as 3 µg/mL (≈ 11.3 µM), the MIC (Staphylococcus aureus [18]) is reported as 25 to 265 µg/mL (≈ 94.2 to 999 µM) and the MIC (Edwardsiella ictaluri) is reported as 3 µg/mL (≈ 11.3 µM). The zone of inhibition at 10000 µM (Rhodococcus fascians) was 15 mm, the MIC (Escherichia coli [19]) was 25 to 50 µg/mL (≈ 94.2 to 188 µM) and the MIC (Pseudomonas aeruginosa [20]) was 125 to 250 µg/mL (≈ 471 to 942 µM). For the same compound, the MIC (Flavobacterium columnare [21]) was 1 µM (≈ 0.265 µg/mL), the MIC (Flavobacterium columnare [22]) was 1 µM (≈ 0.265 µg/mL) and the MIC (Flavobacterium columnare [23]) was 3 µg/mL (≈ 11.3 µM).
